Measurements reported in patent US9359373B1, “Lipophilic N-substituted norcantharimide derivatives and uses thereof” (priority 2014, dated 2016).
Read-outs that look alike come from different tables or passages of the source.

What was measured:
[1] = Body weight of treated animals; assay type: in vivo, mice; settings: 18 mg/Kg, compared with healthy normal control, FIG. 11
Method: To inoculate tumor, L1210 cells (1×10^6 cells per injection) were injected either subcutaneously or intraperitoneally to lab animals to generate tumors on day 1. After 7 days, NOC15 or NC15 (diluted in normal saline) was administered intra-peritoneally at a dose of 18 mg/kg every day for 7 days. The average body weight (BW) of the animals was measured daily.
Mice were inoculated with L1210 tumor cells in accordance with the procedures described in the section of “Materials and Methods.” For in vivo therapy, animals were given 18 mg/Kg NOC15 or NC15 by intra-peritoneal route, for a period of at least 7 days. Tumor size, animal body weight, respective weights of liver and spleen, as well as the white blood cell count of each animal were then measured respectively at the indicated time. Results are depicted in FIGS. 8 to 11, respectively.

HepG2 cells [2] = assay: Apoptotic analysis annexin-V/PI flow cytometry; assay type: cell-based, human; settings: 10-60 μM, 48 hours, FIG. 3
Method: The percentage of apototic cells was determined according to the manufacturer's protocol by using an annexin-V/FITC kit/propidium iodine (PI) flow cytometer. To facilitate the detection of apoptosis, the treated cells were centrifuged for 5 min at a speed of 1,000×g at room temperature, and then resuspended and washed once with 5 mL PBS before being stained with annexin-V/PI (apoptosis detection kit, R&D Systems, Taipei, Taiwan).
HepG2 cells were treated with 10-60 μM of the test compounds for 48 hours, then cell cycle distribution and apoptosis analysis was analyzed by flow cytometry, with the subG1 phase being stained with propidium idoine (PI). Results are illustrated in FIGS. 2 and 3.

HT29 = assay: MTT cell viability, HT29; assay type: cell-based, human; settings: Homo sapiens, HT-29, 48 hours, Mean ± SD, read-out: Growth Inhibition IC50 HT-29
Method: (§1) Cell lines used in the present disclosure include human liver carcinonoma cell line HepG2, human bladder carcinoma cell line BFTC905, human colon carcinoma cell lines HT29 and SW480, and human leukemia cell lines HL60 and Jurkat T, and mouse lymphocytic leukemia cell line L1210. Each cell lines were cultured and maintained in Dulbecco's modified Eagle media (DMEM) or RPMI 1640 medium supplemented with 10% heat inactivated fetal bovine serum (FBS), 1% penicillin/streptomycin, in 5% CO2195% air at 37° C.
(§2) The absorbance of the solution at 540 nm was measured by spectrophotometer. The IC50 values were defined as the drug concentration that inhibit 50% cell growth by setting the viability of untreated cells as 100%. Values were represented as the mean±SD from at least 3 independent experiments.
(§3) Effects of the compounds of formula (I) of this disclosure, specifically, NOC15 and NC 15, on HepG2 cells (liver carcinoma), BFTC905 (bladder carcinoma), HT29 (colon carcinoma), SW480 (colon carcinoma) and HL60 (leukemia) were assessed by cell viability analysis in accordance with procedures described above, in which compound 2, and other known anti-cancer agents including 5-FU, cisplatin and doxorubicin were respectively used as positive controls.

HepG2 cells [3] = assay: MTT cell viability, HepG2; assay type: cell-based, human; settings: Homo sapiens, Mean ± SD
Method: as §1, §2, §3
In this example, effects of NOC15 or NC15 on HepG2 cells were assessed by cell viability analysis in accordance with procedures described above, in which compound 2 was used as a positive control.

HepG2 cells [4] = assay: Hoechst 33528 staining, nuclear morphological changes; assay type: cell-based, human; settings: 40 μM, 48 hours, FIG. 1
Method: Staining with Hoechst 33528 was performed according to the method described previously (Huang et al., Cytotechnology 2009, 59, 201-208). Briefly, cells were treated with 40 μM norcantharidin, NOC15, or NC15 for 48 hours, then washed with PBS saline and stained with Hoechst 33528 (Sigma, St. Louis, Mo., USA) at a final concentration of 10 μg/mL. The slides were examined under a fluorescence microscope. Cells with a small nucleus, a high fluorescence intensity (due to chromatin condensation) or nuclear fragmentation were considered apoptotic.
To further investigate the role of apoptosis in the cytotoxicity of NOC15 and NC15, HepG2 cells were incubated with compound 2, NOC15 and NC15, respectively, for 48 hours; then were stained with Hoechst 33528 and examined by fluorescence microscope for any topical morphological changes.

[5] = test system: human lymphoblast cells (NHL); assay: Cell viability (CCK-8), normal lymphoblast cells; assay type: cell-based; settings: 24 hours (NC15: 24 and 48 hours), FIG. 4, FIG. 6
Method: The cell viability assays were performed in 96-well plates. The 100 μl of cell suspensions (NHL or Jurkat T cells, 5×10^3 cells/well, serum-free medium) were inoculated in the wells and the plates were pre-incubated in the incubator for 24 hours (pre-incubated for 22 hours and stimulated with PMA 5 ng/ml plus ionomycin 250 ng/ml for 2 hours in PMAI-treated groups). Then, various concentrations of norcantharidin (0, 2, 4, 15, 30 and 60 μM) or NOC15 (0, 0.25, 0.5, 1, 2 and 4 μM) were added into the culture media in the wells. After 24 hours of incubation, the cell viability of NHL and Jurkat T cells was measured by cell counting kit-8 (CCK-8, Sigma). The half maximal inhibitory concentrations (IC50) of norcantharidin and NOC15 on Jurkat T cells and NHL cells were calculated.
In this example, a model of phorbol 12-myristate 13-acetate plus ionomycin (PMAI) activated leukemia Jurkat T cells model was employed to investigate the effects of the NOC15 on human leukemia cells (Jurkat T cells) and human lymphoblast cells (NHL).

SW480 = assay: MTT cell viability, SW480; assay type: cell-based, human; settings: Homo sapiens, SW480, 48 hours, Mean ± SD, read-out: Growth Inhibition IC50 SW480
Method: as §1, §2, §3

## CC(C)=CCCC(C)=CCCC(C)=CCN1C(=O)C2C3CCC(O3)C2C1=O (stereo not shown) [Compound 18, N-farnesyl-7-oxabicyclo[2.2.1]heptane-2,3-dicarboximide]
[1]
  total body weight along the course of treatment: eventually brought the animal body weight to the level same as the control
HepG2 cells [2]
  percentage of apoptotic cells / cell death: dose-dependent
HT29
  IC50: 14.8 ± 1.9 µM
HepG2 cells [3]; HepG2, 24 h, read-out: Growth Inhibition On Hepatic Cancer Cells IC50 24 hrs
  IC50: 19.4 ± 2.1 µM
HepG2 cells [3]; HepG2, 48 h, MTT, 48 hours, read-out: Growth Inhibition IC50 HepG2
  IC50: 16.4 ± 1.2 µM
HepG2 cells [3]; HepG2, 48 h, read-out: Growth Inhibition On Hepatic Cancer Cells IC50 48 hrs
  IC50: 16.4 ± 1.2 µM
HepG2 cells [3]; HepG2, 72 h, read-out: Growth Inhibition On Hepatic Cancer Cells IC50 72 hrs
  IC50: 12.8 ± 2.5 µM
HepG2 cells [4]
  nuclear morphological changes (apoptosis features): Significant morphological features of apotosis
[5]
  cytotoxicity to normal lymphatic/lymphoblast cells (NHL): did not possess significant cytotoxicity
SW480
  IC50: 33.1 ± 1 µM
